From patent US11000033B2, “Ketone or oxime compound, and herbicide” (NISSAN CHEMICAL CORPORATION, priority 2014, dated 2021)

Key:
Assay type in all cases: in vivo
beet = assay: Test Example 5: effect on crop by foliage application, plastic box (symbol f); conditions: 320 g/ha, 3 weeks after application
Summary of the method: (§1)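 Greenhouse test at 25° C. to 30° C. Seeds of crops and weeds were spot-sown in boxes of sterilized diluvial soil under roughly 1.5 cm soil cover, then grown for foliage treatment.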

Amaranthus retroflexus = assay: Test Example 5: herbicidal effect by foliage application, plastic box (symbol N); conditions: 320 g/ha, 3 weeks after application
Summary of the method: (§2)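 Herbicide, formulated as an emulsion and diluted in water, is sprayed onto the aerial parts of 14-day seedlings. These were grown at 25° C. to 30° C. in sterilized diluvial soil; effects are graded after 3 weeks.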

rapeseed = assay: Test Example 5: effect on crop by foliage application, plastic box (symbol g); conditions: 320 g/ha, 3 weeks after application
Summary of the method: as §1

Stellaria media = assay: Test Example 4: herbicidal effect by soil treatment (symbol P)
Summary of the method: (§3)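 Seeds were sown in sterilized diluvial soil, covered with about 1.5 cm of soil, and the soil surface was sprayed with a water-diluted emulsion of the compound at a predetermined rate. Plants grew in a greenhouse at 25° C. to 30° C.; effects were scored visually 3 weeks after application.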

Apera spica-venti [1] = assay: Test Example 5: herbicidal effect by foliage application, plastic box (symbol L); conditions: 320 g/ha, 3 weeks after application
Summary of the method: as §2

Scirpus juncoides = assay: Test Example 2: herbicidal activity, application during weed generation in submerged conditions (symbol B); conditions: Table 23; application herbicide amount 320 g/ha; grade 0-5 by criteria of Test Example 1
Summary of the method: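 Scoring of herbicidal effect took place 3 weeks after treatment, using the criteria of the earlier test. Treatment was water-surface application of diluted emulsifiable compound at a set dose. Plants were at one- to two-leaf stage in submerged alluvial soil (4 cm depth), greenhouse 25-30° C.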

Apera spica-venti [2] = assay: Test Example 4: herbicidal effect by soil treatment (symbol L)
Summary of the method: as §3

Avena fatua = assay: Test Example 5: herbicidal effect by foliage application, plastic box (symbol I); conditions: 320 g/ha, 3 weeks after application
Summary of the method: as §2

wheat = assay: Test Example 4: effect on crop by soil treatment (symbol e); conditions: for e: wheat, effect grade on crop: 320 g/ha; for e: wheat, effect on crop grade: application herbicide amount 320 g/ha
Summary of the method: (§4)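 Sterilized diluvial soil, spot sowing, ~1.5 cm soil cover; greenhouse 25–30° C.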

Veronica persica = assay: Test Example 4: herbicidal effect by soil treatment (symbol R)
Summary of the method: as §3

[3] = system: Echinochloa crus-galli var. crus-galli; assay: Test Example 5: herbicidal effect by foliage application, plastic box (symbol H); conditions: 320 g/ha, 3 weeks after application
Summary of the method: as §2

soybean = assay: Test Example 4: effect on crop by soil treatment (symbol d); conditions: for d: soybean, effect grade on crop: 320 g/ha; for d: soybean, effect on crop grade: application herbicide amount 320 g/ha
Summary of the method: as §4

Galium spurium = assay: Test Example 4: herbicidal effect by soil treatment (symbol Q)
Summary of the method: as §3

[4] = system: Echinochloa crus-galli var. crus-galli; assay: Test Example 3: herbicidal effect by foliage application, Wagner pot (symbol H); conditions: application herbicide amount 320 g/ha
Summary of the method: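 Foliar spray of a water-diluted emulsion at a predetermined herbicide amount, applied to 14-day-old plants. Seedlings were raised in flooded alluvial soil (0.1–0.5 cm water) at 25–30 °C in a greenhouse. Injury was rated after 3 weeks against fixed criteria.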

Lolium multiflorum Lam. = assay: Test Example 5: herbicidal effect by foliage application, plastic box (symbol K); conditions: 320 g/ha, 3 weeks after application
Summary of the method: as §2

corn = assay: Test Example 4: effect on crop by soil treatment (symbol c); conditions: for c: corn, effect grade on crop: 320 g/ha; for c: corn, effect on crop grade: application herbicide amount 320 g/ha
Summary of the method: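 Plants are raised in a greenhouse (25° C. to 30° C.) from spot-sown seed, which sits under about 1.5 cm of sterilized diluvial soil in a box shared with weed species.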

[5] = application herbicide amount 320 g/ha

| Compound | P: Stellaria media, herbicidal effect grade (Stellaria media; 320 g/ha) | Herbicidal effect grade, B: Scirpus juncoides (Scirpus juncoides) | L: Apera spica-venti, herbicidal effect grade (Apera spica-venti [2]; 320 g/ha) | e: wheat, effect grade on crop (wheat) | R: Veronica persica, herbicidal effect grade (Veronica persica; 320 g/ha) | herbicidal effect on H (Echinochloa crus-galli var. crus-galli), grade 0-5 [4] | f: beet, effect on crop grade (beet) | N: Amaranthus retroflexus, herbicidal effect grade (Amaranthus retroflexus) | g: rapeseed, effect on crop grade (rapeseed) | L: Apera spica-venti, herbicidal effect grade (Apera spica-venti [1]) | I: Avena fatua, herbicidal effect grade (Avena fatua) | H: Echinochloa crus-galli var. crus-galli, herbicidal effect grade [3] | K: Lolium multiflorum Lam., herbicidal effect grade (Lolium multiflorum Lam.) | P: Stellaria media, herbicidal effect grade (Stellaria media; [5]) | L: Apera spica-venti, herbicidal effect grade (Apera spica-venti [2]; [5]) | e: wheat, effect on crop grade (wheat) | R: Veronica persica, herbicidal effect grade (Veronica persica; [5]) | d: soybean, effect on crop grade (soybean) | Q: Galium spurium, herbicidal effect grade (Galium spurium; [5]) | c: corn, effect on crop grade (corn) | other results |
| --- | --- | --- | --- | --- | --- | --- | --- | --- | --- | --- | --- | --- | --- | --- | --- | --- | --- | --- | --- | --- | --- |
| CON=C(C)CC1CC(OC(=O)c2ccccc2C(F)(F)F)=C(c2c(C)cc(C)cc2C)C1=O (centres unmarked) [1-154] | 0 (Herbicidal ratio of 5% or lower (almost no effect)) | 4 (Herbicidal ratio of 70% or higher and lower than 90%) | 5 (Herbicidal ratio of 90% or more (almost completely withered)) | 3 (Herbicidal ratio of 40% or higher and lower than 70%) | 0 (Herbicidal ratio of 5% or lower (almost no effect)) | 5 (Herbicidal ratio of 90% or more (almost completely withered)) |  |  |  |  |  |  |  |  |  |  |  |  |  |  | f: beet, effect on crop (criteria 0-5) (beet): 1 (Herbicidal ratio of 5% or higher and lower than 20%); N: Amaranthus retroflexus, herbicidal effect (criteria 0-5) (Amaranthus retroflexus): 3 (Herbicidal ratio of 40% or higher and lower than 70%); g: rapeseed, effect on crop (criteria 0-5) (rapeseed): 4 (Herbicidal ratio of 70% or higher and lower than 90%); L: Apera spica-venti, herbicidal effect (criteria 0-5) (Apera spica-venti [1]): 5 (Herbicidal ratio of 90% or more (almost completely withered)); I: Avena fatua, herbicidal effect (criteria 0-5) (Avena fatua): 5 (Herbicidal ratio of 90% or more (almost completely withered)); H: Echinochloa crus-galli var. crus-galli, herbicidal effect (criteria 0-5) [3]: 5 (Herbicidal ratio of 90% or more (almost completely withered)); d: soybean, effect grade on crop (soybean): 0 (Herbicidal ratio of 5% or lower (almost no effect)); Q: Galium spurium, herbicidal effect grade (Galium spurium; 320 g/ha): 0 (Herbicidal ratio of 5% or lower (almost no effect)); K: Lolium multiflorum Lam., herbicidal effect (criteria 0-5) (Lolium multiflorum Lam.): 5 (Herbicidal ratio of 90% or more (almost completely withered)); c: corn, effect grade on crop (corn): 0 (Herbicidal ratio of 5% or lower (almost no effect)) |
| CC(=O)C(C(C)=O)C1CC(O)=C(c2c(C)cc(C)cc2C)C1=O (centres unmarked) [2-002] | 0 (Herbicidal ratio of 5% or lower (almost no effect)) | 0 (Herbicidal ratio of 5% or lower (almost no effect)) | 0 (Herbicidal ratio of 5% or lower (almost no effect)) | 0 (Herbicidal ratio of 5% or lower (almost no effect)) | 0 (Herbicidal ratio of 5% or lower (almost no effect)) | 0 (Herbicidal ratio of 5% or lower (almost no effect)) | 0 (Herbicidal ratio of 5% or lower (almost no effect)) | 0 (Herbicidal ratio of 5% or lower (almost no effect)) | 3 (Herbicidal ratio of 40% or higher and lower than 70%) | 2 (Herbicidal ratio of 20% or higher and lower than 40%) | 1 (Herbicidal ratio of 5% or higher and lower than 20%) | 3 (Herbicidal ratio of 40% or higher and lower than 70%) | 5 (Herbicidal ratio of 90% or more (almost completely withered)) |  |  |  |  |  |  |  | d: soybean, effect grade on crop (soybean): 0 (Herbicidal ratio of 5% or lower (almost no effect)); Q: Galium spurium, herbicidal effect grade (Galium spurium; 320 g/ha): 0 (Herbicidal ratio of 5% or lower (almost no effect)); c: corn, effect grade on crop (corn): 0 (Herbicidal ratio of 5% or lower (almost no effect)) |
| CCC(=O)CC1CC(O)=C(c2c(C)cc(C)cc2C)C1=O (centres unmarked) [2-006] |  | 2 (Herbicidal ratio of 20% or higher and lower than 40%) |  |  |  | 5 (Herbicidal ratio of 90% or more (almost completely withered)) | 0 (Herbicidal ratio of 5% or lower (almost no effect)) | 0 (Herbicidal ratio of 5% or lower (almost no effect)) | 0 (Herbicidal ratio of 5% or lower (almost no effect)) | 3 (Herbicidal ratio of 40% or higher and lower than 70%) | 3 (Herbicidal ratio of 40% or higher and lower than 70%) | 4 (Herbicidal ratio of 70% or higher and lower than 90%) | 5 (Herbicidal ratio of 90% or more (almost completely withered)) | 0 (Herbicidal ratio of 5% or lower (almost no effect)) | 5 (Herbicidal ratio of 90% or more (almost completely withered)) | 0 (Herbicidal ratio of 5% or lower (almost no effect)) | 0 (Herbicidal ratio of 5% or lower (almost no effect)) | 0 (Herbicidal ratio of 5% or lower (almost no effect)) | 0 (Herbicidal ratio of 5% or lower (almost no effect)) | 2 (Herbicidal ratio of 20% or higher and lower than 40%) |  |
| CCOC(=O)C(C(=O)c1ccccc1)C1CC(O)=C(c2c(C)cc(C)cc2C)C1=O (centres unmarked) [2-008] |  | 0 (Herbicidal ratio of 5% or lower (almost no effect)) |  |  |  | 0 (Herbicidal ratio of 5% or lower (almost no effect)) | 0 (Herbicidal ratio of 5% or lower (almost no effect)) | 1 (Herbicidal ratio of 5% or higher and lower than 20%) | 3 (Herbicidal ratio of 40% or higher and lower than 70%) | 0 (Herbicidal ratio of 5% or lower (almost no effect)) | 0 (Herbicidal ratio of 5% or lower (almost no effect)) | 3 (Herbicidal ratio of 40% or higher and lower than 70%) | 4 (Herbicidal ratio of 70% or higher and lower than 90%) | 0 (Herbicidal ratio of 5% or lower (almost no effect)) | 0 (Herbicidal ratio of 5% or lower (almost no effect)) | 0 (Herbicidal ratio of 5% or lower (almost no effect)) | 0 (Herbicidal ratio of 5% or lower (almost no effect)) | 0 (Herbicidal ratio of 5% or lower (almost no effect)) | 0 (Herbicidal ratio of 5% or lower (almost no effect)) | 0 (Herbicidal ratio of 5% or lower (almost no effect)) |  |
| CCOC(=O)C(C(=O)C(F)(F)F)C1CC(O)=C(c2c(C)cc(C)cc2C)C1=O (centres unmarked) [2-010] |  | 0 (Herbicidal ratio of 5% or lower (almost no effect)) |  |  |  | 3 (Herbicidal ratio of 40% or higher and lower than 70%) | 0 (Herbicidal ratio of 5% or lower (almost no effect)) | 0 (Herbicidal ratio of 5% or lower (almost no effect)) | 0 (Herbicidal ratio of 5% or lower (almost no effect)) | 0 (Herbicidal ratio of 5% or lower (almost no effect)) | 0 (Herbicidal ratio of 5% or lower (almost no effect)) | 0 (Herbicidal ratio of 5% or lower (almost no effect)) | 0 (Herbicidal ratio of 5% or lower (almost no effect)) | 0 (Herbicidal ratio of 5% or lower (almost no effect)) | 0 (Herbicidal ratio of 5% or lower (almost no effect)) | 0 (Herbicidal ratio of 5% or lower (almost no effect)) | 0 (Herbicidal ratio of 5% or lower (almost no effect)) | 0 (Herbicidal ratio of 5% or lower (almost no effect)) | 0 (Herbicidal ratio of 5% or lower (almost no effect)) | 0 (Herbicidal ratio of 5% or lower (almost no effect)) |  |
